Data published in US12582721B2, “Molybdenum-based feed supplement for bees” (UNIVERSITE DE VERSAILLES—SAINT-QUENTIN-EN-YVELINES, priority 2020, dated 2026).

What was measured:
Varroa destructor [1] = assay: 2nd test in the hives: degree of larvae infestation with Varroa; assay type: in vivo; conditions: for Degree of larvae infestation with Varroa: 100 = larvae infestation rate of 28.2%; for Degree of larvae infestation with Varroa, change versus batch I: value in brackets
Method: (§1) The 2nd test was performed in the same apiary the following year. Feeding with the complex of the invention took place in spring. The biological tests were monitored up to the month of September. The molecules tested, their concentration in solution and their annual overall doses are listed below: • 1. […] The concentration of the complex in syrup: 1.5×10^-7 mol/L. Overall product dose: 2 mg/colony • 2. […] Overall complex dose: 6 mg/colony • 4. LiCH3COO·H2O for comparison, abbreviated as Li-Ac • The feeding is carried out with 2000 g of candy containing 0.8 mg of product then 6 to 7 L of syrup containing 0.2 mg/L of product. The concentration of product in the syrup: 2.36×10^-6 mol/L that is 1.67×10^-5 g/L. Overall product dose: 2 mg/colony [table]

Varroa destructor [2] = assay: 2nd test in the hives: degree of infestation of bees with Varroa; assay type: in vivo; conditions: for Degree of infestation with Varroa: 100 = 2.32 mite/10 g of bees; for Degree of infestation with Varroa, change versus batch I: value in brackets
Text: The assessment consists in counting the number of Varroa on a sample of adult bees. The value from this count is used as an index for monitoring the level of parasitism in the colony. The method uses icing sugar and a “shaker” jar made of transparent glass with a capacity of 1 kg. The cover is a mesh made of galvanized steel of the type placed at the bottom of the hive, with a mesh size of 3 mm. The mesh allows Varroa mites to pass through but retains the honey bees. The method is implemented according to the following steps: 40 to 50 g of honey bees are collected in the jar (approximately 400 bees), 100 g of icing sugar is added and the shaker jar is rolled for 1 minute so as to cover every bee in icing sugar. The icing sugar then makes it possible to separate the Varroa mites from the body of the host bee so that they drop off. Leave to rest for 1 minute: bees have a delousing behavior, which helps the Varroa mites to drop off. The icing sugar is sieved over a sieve which makes it possible to retain the Varroa mites and then count them. The result is given as the number of mites per 10 g of bees (approximately 100 bees) and can be expressed as a %. This rate is indicative of the Varroa burden in the colony. […] A moderate rate is between 2 and 5 and, in this case, treatment of the colonies must be scheduled. Finally, a rate greater than 5, requires emergency treatment of the colony. Our tests give a result of around 2% for worker bees. The 2nd test was performed in the same apiary the following year. Feeding with the complex of the invention took place in spring. The biological tests were monitored up to the month of September. The molecules tested, their concentration in solution and their annual overall doses are listed below: • 1. […] The concentration of the complex in syrup: 1.5×10^-7 mol/L. Overall product dose: 2 mg/colony • 2. […] Overall complex dose: 6 mg/colony • 4. LiCH3COO·H2O for comparison, abbreviated as Li-Ac • The feeding is carried out with 2000 g of candy containing 0.8 mg of product then 6 to 7 L of syrup containing 0.2 mg/L of product. The concentration of product in the syrup: 2.36×10^-6 mol/L that is 1.67×10^-5 g/L. Overall product dose: 2 mg/colony

[3] = tested on: families of European domestic bees; assay: 2nd test in the hives: power of the bee family; assay type: in vivo, Apis mellifera carpatica; conditions: overall dose 2 mg/hive, 10 hives
Method: as §1, with “The power of the bee colony represents the number of bees present in the honeycomb at the time of the assessment. The assessment is performed three times per year: at the spring visit (March-April), at the end of spring (20-31 May) and at the visit in autumn (September). After these three assessments, the average power of the bee family is determined. The amount of bees (kg) is determined by multiplying the number of intervals between the frames, uniformly occupied by the bees, by the coefficient 0.25 for the standard […] frame (435×300 mm) and by 0.2 for the standard Langstroth frame (435×230 mm). The 2nd” for “The 2nd”, “2 mg/colony” for “2 mg/colony [table]”

[4] = tested on: human epithelial pancreatic adenocarcinoma cells of the BxPC-3 line; assay: Resazurin cell proliferation test, BxPC-3 cells; assay type: cell-based; conditions: pancreatic cancer cells; IC50 equal to and greater than 100 μM considered no activity
Text: For cell culture, human cervical epithelial cells of the HeLa line, human epithelial pancreatic adenocarcinoma cells of the BxPC-3 line and healthy Madin-Darby canine kidney epithelial cells of the MDCK line were used in this study. The Resazurin cell proliferation test was applied according to the literature (S. Anoopkumar-Dukie, J. B. Carey, T. Conere, E. O'Sullivan, F. N. van Pelt, A. Allshire, Br J Radiol 2005, 78, 945, DOI: 10.1259/bjr/54004230). As an indicator of the effectiveness of the experimental compounds on cell proliferation, the median inhibitory concentration (IC50) was used. The lower the IC50 value, the higher the activity (in this case, the cytotoxicity).
Five formula I complexes were tested in this study in comparison to two reference anti-cancer compounds (“Cisplatin” and Doxorubicin complex).

| Structure (SMILES) | Degree of larvae infestation with Varroa (Varroa destructor [1]; overall dose 2 mg/hive) | Degree of larvae infestation with Varroa, change versus batch I (Varroa destructor [1]; overall dose 2 mg/hive) [%] | Degree of infestation with Varroa (Varroa destructor [2]; overall dose 2 mg/hive) | Degree of infestation with Varroa, change versus batch I (Varroa destructor [2]; overall dose 2 mg/hive) [%] | Power of the bee family [3] | Degree of larvae infestation with Varroa (Varroa destructor [1]; overall dose 6 mg/hive) | Degree of larvae infestation with Varroa, change versus batch I (Varroa destructor [1]; overall dose 6 mg/hive) [%] | Degree of infestation with Varroa (Varroa destructor [2]; overall dose 6 mg/hive) | Degree of infestation with Varroa, change versus batch I (Varroa destructor [2]; overall dose 6 mg/hive) [%] | IC50, BxPc-3 [4] | IC50 [4] [µM] |
| --- | --- | --- | --- | --- | --- | --- | --- | --- | --- | --- | --- |
| CC(=O)[O-].[Li+] [Li—Ac, LiCH3COO·H2O, reference compound] | 64.9 % relative to batch I | −35.1 | 69.0 % relative to batch I | −31 | 97.5 % relative to batch I | – | – | – | – | – | – |
| O.O.O.O.O.O.O=C([O-])CN(CCN(CC(=O)[O-])CC(=O)[O-])CC(=O)[O-].[Li+].[Li+].[O]=[Mo+]12[O][Mo+]1(=[O])[O]2 [Li—Mo2O4-EDTA, Li2[Mo2O4 (EDTA)]·6H2O] | 42.6 % relative to batch I | −57.4 | 52.6 % relative to batch I | −47.4 | 120 % relative to batch I | 18.4 % relative to batch I | −81.6 | 38.4 % relative to batch I | −62.6 | Inactive | – |
| O.O.O.O.O.O=C([O-])CN(CCN(CC(=O)[O-])CC(=O)[O-])CC(=O)[O-].[Na+].[Na+].[O]=[Mo+]12[O][Mo+]1(=[O])[O]2 [Na—Mo2O4-EDTA, Na2[Mo2O4 (EDTA)]·5H2O] | – | – | – | – | – | – | – | – | – | Inactive | – |
| O=C([O-])CN(CCN(CC(=O)[O-])CC(=O)[O-])CC(=O)[O-].[O]=[Mo+]12[O][Mo+]1(=[O])[O]2.c1ccc([P+](c2ccccc2)(c2ccccc2)c2ccccc2)cc1.c1ccc([P+](c2ccccc2)(c2ccccc2)c2ccccc2)cc1 [PPh4—Mo2O4-EDTA, (PPh4)2[Mo2O4 (EDTA)]·2.5H2O] | 56.0 % relative to batch I | −44.0 | 60.8 % relative to batch I | −39.2 | 120 % relative to batch I | – | – | – | – | – | 25.1 ± 7.02 |
